Measured values as given in article PMC10765884, “MC180295 is a highly potent and selective CDK9 inhibitor with preclinical in vitro and in vivo efficacy in cancer” (Clinical Epigenetics, 2024).
Where two headings read alike, the source gives them in different places.

Tests used:
[1] = Pharmacokinetics in mice; type: in vivo; details: mouse, plasma
Method: Fig. 1 MC180295 enzymatic/growth inhibition and pharmacokinetics. A In vitro activity (IC50 values) of MC180295 against a panel of CDKs. B MC180295 IC50 values against 46 cell lines from 6 different cancer types. C Pharmacokinetic analyses after oral or IV administration of low-dose (1 mg/kg IV or 2.5 mg/kg oral) MC180295 to mice. D Pharmacokinetic analyses after IP administration of 10 mg/kg MC180295 to mice.
We next studied the pharmacokinetics (PK) of MC180295.

[2] = molecular target: T1, CDK14/cyclin Y (PFTK1) (Homo sapiens, UniProt O94921); test: CDK enzymatic assay; type: biochemical; details: Fig. 1A
T1 construct: purchased Reaction Biology Corp
T1 sequence (O94921 whole entry): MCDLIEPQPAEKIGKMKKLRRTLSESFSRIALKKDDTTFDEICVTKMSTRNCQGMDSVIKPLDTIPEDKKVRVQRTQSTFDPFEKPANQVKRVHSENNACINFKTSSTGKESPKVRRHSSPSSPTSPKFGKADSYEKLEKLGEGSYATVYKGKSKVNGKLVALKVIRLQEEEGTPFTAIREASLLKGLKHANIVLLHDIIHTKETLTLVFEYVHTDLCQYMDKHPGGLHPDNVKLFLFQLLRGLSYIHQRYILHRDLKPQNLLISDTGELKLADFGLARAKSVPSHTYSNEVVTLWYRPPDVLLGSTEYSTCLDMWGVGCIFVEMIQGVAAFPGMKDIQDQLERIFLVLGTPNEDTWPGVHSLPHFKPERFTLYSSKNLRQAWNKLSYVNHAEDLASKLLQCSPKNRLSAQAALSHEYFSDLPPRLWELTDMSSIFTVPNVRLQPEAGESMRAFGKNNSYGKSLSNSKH
T1 sequence (Q8ND76 whole entry partner): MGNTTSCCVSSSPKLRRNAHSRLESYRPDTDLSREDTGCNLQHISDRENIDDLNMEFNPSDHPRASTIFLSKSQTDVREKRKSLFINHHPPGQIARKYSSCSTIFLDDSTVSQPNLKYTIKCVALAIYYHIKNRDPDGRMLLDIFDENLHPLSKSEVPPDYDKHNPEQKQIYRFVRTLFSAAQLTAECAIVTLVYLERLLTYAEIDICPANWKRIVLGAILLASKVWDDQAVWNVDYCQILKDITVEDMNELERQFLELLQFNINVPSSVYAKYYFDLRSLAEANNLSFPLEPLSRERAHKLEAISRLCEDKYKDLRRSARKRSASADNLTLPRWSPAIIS
Method: (§1) CDK enzymatic assays were performed by Reaction Biology Corp. (Malvern, PA), using 10 µM ATP for determining MC180295 IC50 values for each CDK family member for which assays were available. Kinase enzymatic assays were also performed by Nanosyn (Santa Clara, CA), using microfluidic technology and MC180295 IC50 curves against 10 CDKs. Selectivity against CDK9 was confirmed for the enantiomers at Reaction Biology Corp. (Malvern, PA).

[3] = molecular target: T2, CDK8/cyclin C (Homo sapiens, UniProt P49336); test: CDK enzymatic assay; type: biochemical; details: Fig. 1A
T2 construct: purchased Reaction Biology Corp
T2 sequence (P49336 whole entry): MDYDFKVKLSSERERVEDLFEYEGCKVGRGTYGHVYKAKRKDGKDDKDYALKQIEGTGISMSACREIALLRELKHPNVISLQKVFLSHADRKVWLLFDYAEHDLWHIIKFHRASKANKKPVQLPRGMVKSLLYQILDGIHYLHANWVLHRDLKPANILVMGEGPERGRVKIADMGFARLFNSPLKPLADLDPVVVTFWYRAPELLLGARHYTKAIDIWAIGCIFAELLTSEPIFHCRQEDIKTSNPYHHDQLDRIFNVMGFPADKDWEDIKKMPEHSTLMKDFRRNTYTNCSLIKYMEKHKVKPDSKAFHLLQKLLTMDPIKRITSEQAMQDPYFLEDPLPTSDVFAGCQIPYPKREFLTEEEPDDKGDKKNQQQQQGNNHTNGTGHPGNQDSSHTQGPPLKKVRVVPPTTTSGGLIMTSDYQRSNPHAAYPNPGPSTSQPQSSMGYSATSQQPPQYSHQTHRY
T2 sequence (P24863 whole entry partner): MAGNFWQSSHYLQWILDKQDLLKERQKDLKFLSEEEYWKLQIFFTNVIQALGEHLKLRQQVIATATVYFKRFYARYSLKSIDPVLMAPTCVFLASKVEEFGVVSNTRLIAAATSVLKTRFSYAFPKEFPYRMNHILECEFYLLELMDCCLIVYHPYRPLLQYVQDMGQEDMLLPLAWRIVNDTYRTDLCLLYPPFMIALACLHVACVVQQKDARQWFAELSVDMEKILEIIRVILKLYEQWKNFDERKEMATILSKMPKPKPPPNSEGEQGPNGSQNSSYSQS
Method: as §1

[4] = molecular target: T3, CDK3/cyclin E2 (Homo sapiens, UniProt Q00526); test: CDK enzymatic assay; type: biochemical; details: Fig. 1A
T3 construct: purchased Reaction Biology Corp
T3 sequence (Q00526 whole entry): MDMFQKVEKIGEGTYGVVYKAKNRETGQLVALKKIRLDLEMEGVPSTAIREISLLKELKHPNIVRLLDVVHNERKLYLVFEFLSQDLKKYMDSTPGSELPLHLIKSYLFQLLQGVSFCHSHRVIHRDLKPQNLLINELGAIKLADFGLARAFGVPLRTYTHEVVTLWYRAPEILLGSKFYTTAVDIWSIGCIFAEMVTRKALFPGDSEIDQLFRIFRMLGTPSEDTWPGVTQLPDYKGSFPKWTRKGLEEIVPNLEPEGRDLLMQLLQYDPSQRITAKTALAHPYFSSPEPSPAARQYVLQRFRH
T3 sequence (O96020 whole entry partner): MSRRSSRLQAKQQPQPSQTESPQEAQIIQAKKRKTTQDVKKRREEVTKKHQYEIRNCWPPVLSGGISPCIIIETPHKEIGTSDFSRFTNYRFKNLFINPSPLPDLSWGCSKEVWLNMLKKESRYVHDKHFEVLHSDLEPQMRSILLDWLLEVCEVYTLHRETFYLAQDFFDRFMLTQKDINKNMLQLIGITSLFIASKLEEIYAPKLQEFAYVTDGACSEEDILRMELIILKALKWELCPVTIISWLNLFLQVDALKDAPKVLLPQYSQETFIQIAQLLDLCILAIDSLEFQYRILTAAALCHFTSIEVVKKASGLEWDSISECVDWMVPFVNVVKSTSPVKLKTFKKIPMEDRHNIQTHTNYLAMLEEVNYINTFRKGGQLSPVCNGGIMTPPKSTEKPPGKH
Method: as §1

[5] = molecular target: T4, CDK19/cyclin C (Homo sapiens, UniProt Q9BWU1); test: CDK enzymatic assay; type: biochemical; details: Fig. 1A
T4 construct: purchased Reaction Biology Corp
T4 sequence (Q9BWU1 whole entry): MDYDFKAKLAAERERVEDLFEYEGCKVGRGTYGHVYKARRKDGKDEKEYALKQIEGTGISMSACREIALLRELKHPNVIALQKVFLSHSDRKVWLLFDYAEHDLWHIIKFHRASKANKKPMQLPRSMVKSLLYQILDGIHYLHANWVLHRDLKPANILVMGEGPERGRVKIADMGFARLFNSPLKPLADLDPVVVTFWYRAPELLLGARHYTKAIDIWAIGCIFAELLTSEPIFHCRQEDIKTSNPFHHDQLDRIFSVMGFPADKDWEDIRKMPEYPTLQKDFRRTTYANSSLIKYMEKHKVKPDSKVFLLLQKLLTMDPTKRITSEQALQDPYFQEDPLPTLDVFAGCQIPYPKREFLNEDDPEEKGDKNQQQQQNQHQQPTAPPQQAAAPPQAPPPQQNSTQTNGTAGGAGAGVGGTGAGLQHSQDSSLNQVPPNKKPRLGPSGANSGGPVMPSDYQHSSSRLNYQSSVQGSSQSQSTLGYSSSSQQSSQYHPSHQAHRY
T4 sequence (P24863 whole entry partner): as the sequence (P24863 whole entry partner) above
Method: as §1

[6] = molecular target: T5, CDK6-Cyclin D3 (Homo sapiens, UniProt Q00534); test: CDK enzymatic assay; type: biochemical; details: Fig. 1A
T5 construct: purchased Nanosyn
T5 sequence (Q00534 whole entry): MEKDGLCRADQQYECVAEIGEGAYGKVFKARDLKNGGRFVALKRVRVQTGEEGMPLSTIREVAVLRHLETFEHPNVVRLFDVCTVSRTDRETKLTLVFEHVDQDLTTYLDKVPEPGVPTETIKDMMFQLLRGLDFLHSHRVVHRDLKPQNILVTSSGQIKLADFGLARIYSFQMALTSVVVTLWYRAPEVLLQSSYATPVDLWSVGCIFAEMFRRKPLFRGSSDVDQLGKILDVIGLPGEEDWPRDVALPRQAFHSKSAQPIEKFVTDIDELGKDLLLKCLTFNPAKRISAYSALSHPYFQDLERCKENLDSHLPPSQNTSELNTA
T5 sequence (P30281 whole entry partner): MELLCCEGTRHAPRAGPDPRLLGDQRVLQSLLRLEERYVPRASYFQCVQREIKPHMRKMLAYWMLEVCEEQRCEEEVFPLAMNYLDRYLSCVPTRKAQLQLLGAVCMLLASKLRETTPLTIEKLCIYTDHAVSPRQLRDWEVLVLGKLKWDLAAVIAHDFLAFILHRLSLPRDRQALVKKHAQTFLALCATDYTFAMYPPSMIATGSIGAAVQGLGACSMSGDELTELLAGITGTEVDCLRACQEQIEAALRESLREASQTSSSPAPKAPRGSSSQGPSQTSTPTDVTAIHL
Method: as §1

[7] = molecular target: T6, CDK17/cyclin Y (PCTK2) (Homo sapiens, UniProt Q00537); test: CDK enzymatic assay; type: biochemical; details: Fig. 1A
T6 construct: purchased Reaction Biology Corp
T6 sequence (Q00537 whole entry): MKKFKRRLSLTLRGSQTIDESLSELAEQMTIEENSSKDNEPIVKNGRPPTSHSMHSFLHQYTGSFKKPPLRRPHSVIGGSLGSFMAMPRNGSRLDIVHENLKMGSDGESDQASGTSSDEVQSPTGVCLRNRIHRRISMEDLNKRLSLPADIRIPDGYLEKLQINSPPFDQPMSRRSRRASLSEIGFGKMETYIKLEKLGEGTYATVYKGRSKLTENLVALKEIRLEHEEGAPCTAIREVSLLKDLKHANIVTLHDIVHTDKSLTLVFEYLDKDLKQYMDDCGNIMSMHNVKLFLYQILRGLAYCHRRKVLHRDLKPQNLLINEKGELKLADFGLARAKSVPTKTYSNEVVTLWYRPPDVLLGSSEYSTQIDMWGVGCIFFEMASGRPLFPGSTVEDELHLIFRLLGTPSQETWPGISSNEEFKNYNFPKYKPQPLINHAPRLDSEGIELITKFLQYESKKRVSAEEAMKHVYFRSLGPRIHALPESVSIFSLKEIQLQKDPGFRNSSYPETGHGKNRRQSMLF
T6 sequence (Q8ND76 whole entry partner): as the sequence (Q8ND76 whole entry partner) above
Method: as §1

[8] = molecular target: T7, CDK18/cyclin Y (PCTK3) (Homo sapiens, UniProt Q07002); test: CDK enzymatic assay; type: biochemical; details: Fig. 1A
T7 construct: purchased Reaction Biology Corp
T7 sequence (Q07002 whole entry): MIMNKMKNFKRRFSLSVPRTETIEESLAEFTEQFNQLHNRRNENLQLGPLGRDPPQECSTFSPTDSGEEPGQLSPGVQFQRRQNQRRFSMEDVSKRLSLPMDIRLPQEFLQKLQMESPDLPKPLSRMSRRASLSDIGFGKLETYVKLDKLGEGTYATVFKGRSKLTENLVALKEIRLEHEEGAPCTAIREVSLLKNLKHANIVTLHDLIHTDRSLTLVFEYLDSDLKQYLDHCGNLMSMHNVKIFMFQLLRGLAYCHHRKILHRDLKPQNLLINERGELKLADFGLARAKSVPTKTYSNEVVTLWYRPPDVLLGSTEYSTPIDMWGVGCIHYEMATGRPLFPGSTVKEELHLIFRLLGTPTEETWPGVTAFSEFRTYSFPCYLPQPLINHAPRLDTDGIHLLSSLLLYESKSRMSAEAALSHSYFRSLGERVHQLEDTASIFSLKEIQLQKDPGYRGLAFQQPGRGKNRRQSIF
T7 sequence (Q8ND76 whole entry partner): as the sequence (Q8ND76 whole entry partner) above
Method: as §1

[9] = tested on: HCCC1937; test: Growth inhibition (cell counting, day 5); type: cell-based; details: Breast
Method: (§2) The live-cell assay for GFP reactivation in YB5 cells was done as previously described. Cells were treated with a single dose of drug 24 h after seeding at low density, and GFP fluorescence measured in a Millipore Guava flow cytometer (EMD, Millipore) instrument, or by imaging in a Cytation instrument (Agilent). Cancer cell lines (listed in Additional file 1: Fig. S1A) were obtained from ATCC or the Temple/Fox Chase Cellular Repository and cultured in the recommended medium. To measure growth inhibition, cells were seeded in 96-well plates at 40% confluency. Fresh medium was changed the next day and drugs were added directly. Drug-free fresh medium was changed on the fourth day. The cells were collected on day 5 by trypsin, suspended in medium, mixed with trypan blue (Thermo Fisher Scientific) (1:1 ratio), and counted using a LUNA II automated cell counter. Each sample was counted at least three times, and average numbers used for the analysis. Each treatment condition was performed in biological triplicates.

[10] = tested on: BT549; test: Growth inhibition (cell counting, day 5); type: cell-based; details: Homo sapiens, BT-549; Breast
Method: as §2

[11] = tested on: UC6; test: Growth inhibition (cell counting, day 5); type: cell-based; details: Bladder
Method: as §2

[12] = tested on: UC3; test: Growth inhibition (cell counting, day 5); type: cell-based; details: Bladder
Method: as §2

[13] = tested on: THP-1; test: Growth inhibition (cell counting, day 5); type: cell-based; details: Homo sapiens, Leukemia
Method: as §2

[14] = tested on: HCC2218; test: Growth inhibition (cell counting, day 5); type: cell-based; details: Homo sapiens, Breast
Method: as §2

[15] = tested on: PC3; test: Growth inhibition (cell counting, day 5); type: cell-based; details: Homo sapiens, PC-3; Prostate
Method: as §2

[16] = tested on: A375; test: Growth inhibition (cell counting, day 5); type: cell-based; details: Homo sapiens, A-375; Melanoma
Method: as §2

[17] = tested on: CaCO2; test: Growth inhibition (cell counting, day 5); type: cell-based; details: Homo sapiens, Caco-2; Colon
Method: as §2

[18] = tested on: LOVO; test: Growth inhibition (cell counting, day 5); type: cell-based; details: Homo sapiens, Colon
Method: as §2

[19] = tested on: MOLM-13; test: Growth inhibition (cell counting, day 5); type: cell-based; details: Homo sapiens, Leukemia
Method: as §2

[20] = tested on: SW480; test: Growth inhibition (cell counting, day 5); type: cell-based; details: Homo sapiens, Colon
Method: as §2

[21] = tested on: K562; test: Growth inhibition (cell counting, day 5); type: cell-based; details: Homo sapiens, Leukemia
Method: as §2

[22] = tested on: SKBR3; test: Growth inhibition (cell counting, day 5); type: cell-based; details: Homo sapiens, SK-BR-3; Breast
Method: as §2

[23] = tested on: MV4-11; test: Growth inhibition (cell counting, day 5); type: cell-based; details: Homo sapiens, Leukemia
Method: as §2

[24] = tested on: HTB126; test: Growth inhibition (cell counting, day 5); type: cell-based; details: Breast
Method: as §2

[25] = tested on: HT29; test: Growth inhibition (cell counting, day 5); type: cell-based; details: Homo sapiens, HT-29; Colon
Method: as §2

[26] = tested on: UC16; test: Growth inhibition (cell counting, day 5); type: cell-based; details: Bladder
Method: as §2

[27] = tested on: J-Tag; test: Growth inhibition (cell counting, day 5); type: cell-based; details: Leukemia
Method: as §2

[28] = tested on: MCF7; test: Growth inhibition (cell counting, day 5); type: cell-based; details: Homo sapiens, Breast
Method: as §2

[29] = tested on: LnCap; test: Growth inhibition (cell counting, day 5); type: cell-based; details: Homo sapiens, Prostate
Method: as §2

[30] = tested on: WM3912; test: Growth inhibition (cell counting, day 5); type: cell-based; details: Melanoma
Method: as §2

[31] = tested on: RKO; test: Growth inhibition (cell counting, day 5); type: cell-based; details: Homo sapiens, Colon
Method: as §2

[32] = tested on: WM88; test: Growth inhibition (cell counting, day 5); type: cell-based; details: Melanoma
Method: as §2

[33] = tested on: HS936T; test: Growth inhibition (cell counting, day 5); type: cell-based; details: Melanoma
Method: as §2

Nc1nc(N[C@H]2C[C@@H]3CC[C@H]2C3)sc1C(=O)c1ccccc1[N+](=O)[O-] (relative stereo) [MC180295]
AUC(0-t) ([1]; IP 10 mg/kg): 1370 ng·h/mL | Cmax ([1]; IP 10 mg/kg): 1070 ng/mL | Tmax ([1]; IP 10 mg/kg): 0.17 h | AUC(0-inf) ([1]; IP 10 mg/kg, read-out: AUC 0-inf_obs): 3840 ng·h/mL | AUC ([1]; IV - 1mg/kg): 110 ng·h/mL | Cmax ([1]; IV - 1mg/kg): 210 ng/mL | clearance ([1]; IV - 1mg/kg): 3.67 mL/min | Vd ([1]; IV - 1mg/kg, read-out: Vss): 0.19 L | AUC ([1]; Oral - 2.5mg/kg): 71 ng·h/mL | Cmax ([1]; Oral - 2.5mg/kg): 96 ng/mL | Tmax ([1]; Oral - 2.5mg/kg): 0.5 h | bioavailability ([1]; Oral - 2.5mg/kg vs IV - 1mg/kg, as fraction): 26% | half-life ([1]; ip, 10 mg/kg, IP 10 mg/kg, read-out: T1/2 (converted)): 15.8 h | half-life ([1]; ip, 10 mg/kg, IP at 10 mg/kg, read-out: half-life (converted)): 15.8 h | half-life ([1]; iv, 1 mg/kg, IV - 1mg/kg, read-out: T1/2 (converted)): 0.86 h | half-life ([1]; iv, 1 mg/kg, IV dose of 1 mg/kg, read-out: half-life (converted)): 0.86 h | bioavailability ([1]; oral dose of 2.5 mg/kg): 26% | half-life ([1]; po, 2.5 mg/kg, Oral - 2.5mg/kg, read-out: T1/2 (converted)): 1.32 h | half-life ([1]; po, 2.5 mg/kg, oral dose of 2.5 mg/kg, read-out: half-life (converted)): 1.3 h | IC50 [2]: 528 nM | IC50 [3]: 501 nM | IC50 [4]: 401 nM | IC50 [5]: 814 nM | IC50 [6]: 712 nM | IC50 [7]: 438 nM | IC50 [8]: 1060 nM | IC50 [9]: 124 nM | IC50 [10]: 290 nM | IC50 [11]: 143 nM | IC50 [12]: 101 nM | IC50 [13]: 43 nM | IC50 [14]: 70.6 nM | IC50 [15]: 213 nM | IC50 [16]: 189 nM | IC50 [17]: 107 nM | IC50 [18]: 199 nM | IC50 [19]: 44 nM | IC50 [20]: 154 nM | IC50 [21]: 502 nM | IC50 [22]: 122 nM | IC50 [23]: 28 nM | IC50 [24]: 92 nM | IC50 [25]: 75.6 nM | IC50 [26]: 77 nM | IC50 [27]: 112 nM | IC50 [28]: 177 nM | IC50 [29]: 109 nM | IC50 [30]: 119 nM | IC50 [31]: 76.8 nM | IC50 [32]: 103 nM | IC50 [33]: 391 nM
